[I] = hypoxanthine (inosine); d = 2'-deoxy (DNA); m = 2'-O-methyl
Tested on: human B-cells
Experiment: Human B-cells cultured in the presence of IRPs, IL-6
[1] = Experiment # 11, Max Conc 2.0 uM
[2] = Experiment # 7, Max Conc 4.0 uM
[3] = Experiment # 4, Max Conc 4.0 uM
[4] = Experiment # 10, Max Conc 2.0 uM
[5] = Experiment # 1, Max Conc 4.0 uM
[6] = Experiment # 2, Max Conc 4.0 uM
[7] = Experiment # 9, Max Conc 2.0 uM
[8] = Experiment # 5, Max Conc 4.0 uM
[9] = Experiment # 6, Max Conc 4.0 uM
[10] = Experiment # 8, Max Conc 2.0 uM

Substance: 5′-UGC TGC TCC TGG AGI GGT TGT (DNA UGCTGCTCCTGGAGNGGTTGT; sugars from the 5' end m3 d18, [I] at 15, backbone not given here) [SEQ ID NO:125]
- Normalized IL-6 Response (Percentage of Positive Control) [1]: 38%

Substance: 5′-TGCTTGTCCTGGAGGGGTTGT-3′ (DNA, backbone not given here; further chemistry not fully specified) [SEQ ID NO:43]
- Normalized IL-6 Response (Percentage of Positive Control) [2]: 9%

Substance: 5′-TGCTTGTCCTGGAGGGGTTGT (DNA TGCTTGTCCTGGAGGGTTGT; listed as DNA, chemistry not fully specified) [SEQ ID NO:204]
- Normalized IL-6 Response (Percentage of Positive Control) [3]: 9%

Substance: 5′-UGC TGC TCC TGG AGI GGT TGT AAG T (DNA UGCTGCTCCTGGAGNGGTTGTAAGT; sugars from the 5' end m3 d22, [I] at 15, backbone not given here) [SEQ ID NO:130]
- Normalized IL-6 Response (Percentage of Positive Control) [4]: 49%

Substance: 5′-TGC TCC TGG AGG GGT TGT-HEG-HEG-3′ (DNA TGCTCCTGGAGGGGTTGTNN; 3' HEG-HEG, chemistry not fully specified) [SEQ ID NO:141]
- Normalized IL-6 Response (Percentage of Positive Control) [3]: 8%
- Normalized IL-6 Response (Percentage of Positive Control) [2]: 8%

Substance: 5′-TGC TTG TCC TGG AGI GGT TGT-3′ (DNA TGCTTGTCCTGGAGNGGTTGT; DNA, [I] at 15, backbone and methylation of C not given here) [SEQ ID NO:74]
- Normalized IL-6 Response (Percentage of Positive Control) [5]: 21%
- Normalized IL-6 Response (Percentage of Positive Control) [6]: 25%
- Normalized IL-6 Response (Percentage of Positive Control) [7]: 23%

Substance: 5′-TGCTCCTGGAGGGGTTGTAAGTTTGT-3′ (DNA TGCTCCTGGAGGGGTTGTAAGTTTGT; DNA, backbone and methylation of C not given here; further chemistry not fully specified) [SEQ ID NO:68]
- Normalized IL-6 Response (Percentage of Positive Control) [8]: 12%
- Normalized IL-6 Response (Percentage of Positive Control) [9]: 6%

Substance: 5′-UGC TCC TGG AGG GGU UGU (DNA UGCTCCTGGAGGGGUUGU; sugars from the 5' end m3 d11 m4, backbone not given here) [SEQ ID NO:85]
- Normalized IL-6 Response (Percentage of Positive Control) [3]: 18%
- Normalized IL-6 Response (Percentage of Positive Control) [2]: 18%

Substance: 5′-UGC TTG TCC TGG AGI GGT GTT GT (DNA UGCTTGTCCTGGAGNGGTGTTGT; sugars from the 5' end m3 d20, [I] at 15, backbone not given here) [SEQ ID NO:124]
- Normalized IL-6 Response (Percentage of Positive Control) [10]: 33%

Substance: 5′-TGC TGC TCC TTG AGI GGT TGT TTG T-3′ (DNA TGCTGCTCCTTGAGNGGTTGTTTGT; DNA, [I] at 15, backbone and methylation of C not given here) [SEQ ID NO:62]
- Normalized IL-6 Response (Percentage of Positive Control) [3]: 49%
- Normalized IL-6 Response (Percentage of Positive Control) [2]: 49%

Substance: 5′-TGC TTG TCC TGG AGI GGT TGT AAG T-3′ (DNA TGCTTGTCCTGGAGNGGTTGTAAGT; DNA, [I] at 15, backbone and methylation of C not given here) [SEQ ID NO:64]
- Normalized IL-6 Response (Percentage of Positive Control) [5]: 33%
- Normalized IL-6 Response (Percentage of Positive Control) [10]: 19%

Substance: 5′-UGC CAA TCC TGG AGI GGT GTT GT (DNA UGCCAATCCTGGAGNGGTGTTGT; sugars from the 5' end m3 d20, [I] at 15, backbone not given here) [SEQ ID NO:135]
- Normalized IL-6 Response (Percentage of Positive Control) [10]: 42%

Substance: 5′-TGCTGCTCCTGGAGGGGTTGTTTGT-3′ (DNA TGCTGCTCCTGGAGGGGTTGTTTGT; DNA, backbone and methylation of C not given here; further chemistry not fully specified) [SEQ ID NO:57]
- Normalized IL-6 Response (Percentage of Positive Control) [8]: 22%
- Normalized IL-6 Response (Percentage of Positive Control) [9]: 17%

Substance: 5′-TGC TTG TCC TGG AGI GGT GTT GT-3′ (DNA TGCTTGTCCTGGAGNGGTGTTGT; DNA, [I] at 15, backbone not given here) [SEQ ID NO:65]
- Normalized IL-6 Response (Percentage of Positive Control) [5]: 38%
- Normalized IL-6 Response (Percentage of Positive Control) [7]: 21%

Substance: 5′-TGC TGC TCC TTG AGI GGT TGT AAG T (DNA TGCTGCTCCTTGAGNGGTTGTAAGT; DNA, [I] at 15, backbone not given here) [SEQ ID NO:181]
- Normalized IL-6 Response (Percentage of Positive Control) [1]: 38%

Substance: 5′-UGC TCC TGG AGG GGT TGT (DNA NNNTCCTGGAGGGGTTGT; listed as DNA, chemistry not fully specified) [SEQ ID NO:83]
- Normalized IL-6 Response (Percentage of Positive Control) [3]: 6%
- Normalized IL-6 Response (Percentage of Positive Control) [2]: 6%

Substance: 5′-UGC TGC TCC TTG AGI GGT TGT (DNA UGCTGCTCCTTGAGNGGTTGT; sugars from the 5' end m3 d18, [I] at 15, backbone not given here) [SEQ ID NO:114]
- Normalized IL-6 Response (Percentage of Positive Control) [3]: 40%
- Normalized IL-6 Response (Percentage of Positive Control) [8]: 39%
- Normalized IL-6 Response (Percentage of Positive Control) [9]: 39%
- Normalized IL-6 Response (Percentage of Positive Control) [2]: 40%

Substance: 5′-TGCTGCTCCTGGAGGGGTTGT-3′ (DNA TGCTGCTCCTGGAGGGGTTGT; DNA, backbone and methylation of C not given here; further chemistry not fully specified) [SEQ ID NO:60]
- Normalized IL-6 Response (Percentage of Positive Control) [3]: 10%
- Normalized IL-6 Response (Percentage of Positive Control) [2]: 10%

Substance: 5′-UGC TTG TCC TGG AGI GGT TGT (DNA UGCTTGTCCTGGAGNGGTTGT; sugars from the 5' end m3 d18, [I] at 15, backbone not given here) [SEQ ID NO:123]
- Normalized IL-6 Response (Percentage of Positive Control) [6]: 35%
- Normalized IL-6 Response (Percentage of Positive Control) [7]: 35%

Substance: 5′-TGC TGC TCC TGG AGI GGT TGT-3′ (DNA TGCTGCTCCTGGAGNGGTTGT; DNA, [I] at 15, backbone and methylation of C not given here) [SEQ ID NO:66]
- Normalized IL-6 Response (Percentage of Positive Control) [5]: 20%
- Normalized IL-6 Response (Percentage of Positive Control) [7]: 18%

Substance: 5′-UGCTGCTCCTTGAGGGGTTGUU UG U (DNA UGCTGCTCCTTGAGGGGTTGUUUGU; sugars from the 5' end m3 d16 m6, backbone not given here) [SEQ ID NO:104]
- Normalized IL-6 Response (Percentage of Positive Control) [3]: 7%
- Normalized IL-6 Response (Percentage of Positive Control) [2]: 7%

Substance: 5′TGC TCC TTG AGI GGT TGT TTG T-3′ (DNA TGCTCCTTGAGNGGTTGTTTGT; DNA, [I] at 12, backbone not given here) [SEQ ID NO:63]
- Normalized IL-6 Response (Percentage of Positive Control) [3]: 46%
- Normalized IL-6 Response (Percentage of Positive Control) [8]: 48%
- Normalized IL-6 Response (Percentage of Positive Control) [9]: 41%
- Normalized IL-6 Response (Percentage of Positive Control) [2]: 46%

Substance: 5′-TGCTCCTGGAGGGGTTGTAAGT-3′ (DNA TGCTCCTGGAGGGGTTGTAAGT; DNA, backbone and methylation of C not given here; further chemistry not fully specified) [SEQ ID NO:67]
- Normalized IL-6 Response (Percentage of Positive Control) [3]: 8%
- Normalized IL-6 Response (Percentage of Positive Control) [8]: 7%
- Normalized IL-6 Response (Percentage of Positive Control) [9]: 4%
- Normalized IL-6 Response (Percentage of Positive Control) [2]: 8%

Substance: 5′-UGC TGC TCC TTG AGI GGT TGT AAG T (DNA UGCTGCTCCTTGAGNGGTTGTAAGT; sugars from the 5' end m3 d22, [I] at 15, backbone not given here) [SEQ ID NO:129]
- Normalized IL-6 Response (Percentage of Positive Control) [4]: 51%

— patent US8940310B2, “Methods of treatment using TLR7 and/or TLR9 inhibitors” (Dynavax Technologies Corporation, priority 2010, dated 2015)
